{
  "source": "ChEMBL document CHEMBL5528087",
  "about": "“RNA-Small-Molecule Interaction: Challenging the \"Undruggable\" Tag” (J Med Chem, 2024)",
  "key": {"[1]": {"molecular_target": "preQ1 riboswitch", "test": "Binding affinity to Bacillus subtilis 5-Cy5-PreQ1-RS RNA assessed as dissociation constant", "format": "nucleic-acid assay"}, "[2]": {"molecular_target": "preQ1 riboswitch", "test": "Binding affinity to Thermoanaerobacter tengcongensis 5-Cy5-PreQ1-RS RNA assessed as dissociation constant", "format": "nucleic-acid assay, Caldanaerobacter subterraneus subsp. tengcongensis"}, "[3]": {"molecular_target": "Quadruplex DNA", "test": "Binding affinity to TERRA G-Quadruplex (unknown origin) assessed as dissociation constant", "format": "nucleic-acid assay"}, "[4]": {"tested_on": "Quadruplex DNA", "test": "Binding affinity to TERRA G-Quadruplex (unknown origin) assessed as melting temperature", "format": "nucleic-acid assay"}, "[5]": {"test": "Binding affinity to SARS-Cov-2 RNA pseudoknot assessed as dissociation constant", "parameters": "species or system Severe acute respiratory syndrome coronavirus 2"}, "[6]": {"molecular_target": "T1, Survival of motor neuron-related-splicing factor 30 (Homo sapiens) (UniProt O75940)", "T1 sequence (whole entry)": "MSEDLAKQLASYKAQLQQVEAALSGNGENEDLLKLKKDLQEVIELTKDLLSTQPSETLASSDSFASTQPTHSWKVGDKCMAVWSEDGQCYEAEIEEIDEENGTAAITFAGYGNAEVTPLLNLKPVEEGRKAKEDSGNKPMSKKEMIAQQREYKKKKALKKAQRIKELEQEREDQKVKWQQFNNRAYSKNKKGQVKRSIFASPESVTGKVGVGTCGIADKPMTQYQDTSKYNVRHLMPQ", "test": "Inhibition of SMNDC1 (unknown origin) assessed as fold increase at 40 uM"}, "[7]": {"molecular_target": "T2, Non-structural protein 4b (Hepacivirus hominis, UniProt F5B4I0)", "T2 sequence (F5B4I0 whole entry)": "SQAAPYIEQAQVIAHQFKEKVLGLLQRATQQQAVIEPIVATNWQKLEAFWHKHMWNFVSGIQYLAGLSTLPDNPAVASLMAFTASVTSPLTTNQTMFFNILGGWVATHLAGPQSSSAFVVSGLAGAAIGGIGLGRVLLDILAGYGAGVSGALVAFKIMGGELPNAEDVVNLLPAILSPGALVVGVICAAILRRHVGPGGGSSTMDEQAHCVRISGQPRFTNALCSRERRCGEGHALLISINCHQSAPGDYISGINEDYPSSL", "test": "Binding affinity to Hepatitis C virus genotype 1 NS4B assessed as inhibition constant"}},
  "data": [
    {"smiles": "NCCOc1ccc2oc3ccccc3c2c1", "values": [
      {"measurement": "Kd", "setting": "[1]", "value": 534, "unit": "nM"},
      {"measurement": "Kd", "setting": "[2]", "value": 457, "unit": "nM"}
    ]},
    {"smiles": "O=c1c2c(-c3ccco3)csc2nc2n1Cc1nc3scc(-c4ccco4)c3c(=O)n1C2", "values": [
      {"measurement": "Kd", "setting": "[3]", "value": 8.8, "unit": "µM"},
      {"measurement": "ΔTm", "setting": "[4]", "value": "> 5", "unit": "°C"}
    ]},
    {"smiles": "CCOC(=O)c1ccccc1NC(=O)N1CCCN(Cc2csc(C)n2)CC1", "values": [
      {"measurement": "Kd", "setting": "[5]", "value": 210, "unit": "µM"}
    ]},
    {"smiles": "O=C(c1cnc(C(=O)c2c[nH]c3cc(O)ccc23)[nH]1)c1c[nH]c2ccccc12", "values": [
      {"measurement": "fold change (FC)", "setting": "[6]", "value": 1.5}
    ]},
    {"smiles": "CN(C)CCCNc1nc2ccc(N)cc2o1", "values": [
      {"measurement": "Ki", "setting": "[7]", "value": 6, "unit": "µM"}
    ]}
  ]
}
